Assay results from ChEMBL document CHEMBL3044623, “Feeding cessation effects of chlorantraniliprole, a new anthranilic diamide insecticide, in comparison with several insecticides in distinct chemical classes and mode-of-action groups” (2009).

How the values were obtained:
Type in all cases: functional
Helicoverpa zea [1] = experiment: Antifeedant activity against third-instar larval stage of Helicoverpa zea (corn earworm) infested compound-treated leaf assessed as reduction in feeding damage at 3341 mg a.i/L after 48 hr by leaf disk assay relative to untreated control; design: scale not given: the % may be the effect or the level left
Spodoptera exigua [2] = experiment: Antifeedant activity against third-instar larval stage of Spodoptera exigua infested compound-treated leaf assessed as time required to stop feeding at 3341 mg a.i/L after 48 hr by leaf disk assay (reference value: > 2880 min)
Trichoplusia ni [3] = experiment: Antifeedant activity against third-instar larval stage of Trichoplusia ni (cabbage looper) infested compound-treated leaf assessed as time required to stop feeding at 3341 mg a.i/L after 48 hr by leaf disk assay (reference value: > 2880 min)
Plutella xylostella [4] = experiment: Antifeedant activity against third-instar larval stage of Plutella xylostella (diamondback moth) infested compound-treated leaf assessed as reduction in feeding damage at 3341 mg a.i/L after 48 hr by leaf disk assay relative to untreated control; design: scale not given: the % may be the effect or the level left
Spodoptera exigua [5] = experiment: Antifeedant activity against third-instar larval stage of Spodoptera exigua infested compound-treated leaf assessed as reduction in feeding damage at 3341 mg a.i/L after 48 hr by leaf disk assay relative to untreated control; design: scale not given: the % may be the effect or the level left
Trichoplusia ni [6] = experiment: Antifeedant activity against third-instar larval stage of Trichoplusia ni (cabbage looper) infested compound-treated leaf assessed as reduction in feeding damage at 3341 mg a.i/L after 48 hr by leaf disk assay relative to untreated control; design: scale not given: the % may be the effect or the level left
Plutella xylostella [7] = experiment: Antifeedant activity against third-instar larval stage of Plutella xylostella (diamondback moth) infested compound-treated leaf assessed as time required to stop feeding at 3341 mg a.i/L after 48 hr by leaf disk assay (reference value: > 2880 min)
Helicoverpa zea [8] = experiment: Antifeedant activity against third-instar larval stage of Helicoverpa zea (corn earworm) infested compound-treated leaf assessed as time required to stop feeding at 3341 mg a.i/L after 48 hr by leaf disk assay (reference value: > 2880 min)

In the case of `CNC(=O)ON=C(C)SC` [METHOMYL], the Activity (Helicoverpa zea [1]) is reported as 99.7%, the Time (Spodoptera exigua [2]) is reported as 5.9 min and the Time (Trichoplusia ni [3]) is reported as 4.2 min. For the same molecule, the Activity (Plutella xylostella [4]) was 98.5%, the Activity (Spodoptera exigua [5]) was 99.8% and the Activity (Trichoplusia ni [6]) was 99.9%. The Time (Plutella xylostella [7]) was 3.6 min and the Time (Helicoverpa zea [8]) was 3.8 min.
